Activity calls are given as the source filed them. No rule for the calls is given here.
Test system: Trypanosoma brucei growth inhibition
Experiment: trypanosome proliferation inhibitors (AID 1159557);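 also: parasites exposed to compound for 48 h before the resazurin readout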

Compound | IC50
COc1ccc(S(=O)(=O)Nc2ccccc2OC)cc1NC(=O)CCCc1c[nH]c2ccccc12 | 13000 nM
Cc1cccc(NS(=O)(=O)c2cnc3sc(C)cn3c2=O)c1 | > 40000 nM (inactive)
Cc1c(C#N)c([N+](=O)[O-])nn1Cc1cccc(Cl)c1Cl | 16000 nM
Cc1cccc(Nc2nc(-c3ccccn3)cs2)n1 | 1000 nM
Cc1cc(N(C)C)nc2ccc(Cc3cnc(N)nc3N)cc12 | 5000 nM
COc1ccc(Nc2nc(-c3ccccn3)cs2)c(OC)c1 | 20000 nM
Cc1cc(N2CCc3ccccc3C2)nc(Nc2ccc(S(=O)(=O)N3CCOCC3)cc2)n1 | 32000 nM
CN(Cc1ccccc1)Cc1nnnn1C1CCN(Cc2ccc(-n3ccnc3)cc2)CC1 | > 40000 nM (inactive)
c1ccc(CCNCc2cncc3nc(-c4cnccn4)n(C4CCCCC4)c23)cc1 | 32000 nM
Cc1c(C(C)NC(=O)Nc2cccc(Cl)c2)sc2ncnn12 (stereo unspecified) | 20000 nM
FC(F)(F)c1cc(C2CCCN(Cc3c[nH]c4ccccc34)C2)nc2ncnn12 (stereo unspecified) | > 40000 nM (inactive)
CC(C)Nc1nccc(-c2c(-c3ccc(F)cc3)ncn2C2CCOCC2)n1 | 5000 nM
CC(=Cc1ccccc1)CN1CCC(=O)N(Cc2cccnc2)CC1 | > 40000 nM (inactive)
O=C(CCCNC(=O)c1ccc(Cl)cc1)Nc1nc(-c2ccccn2)cs1 | 7900 nM
CS(=O)(=O)c1cccc(CNC(=O)c2cncc(N3CCN(c4ccc(F)cc4)CC3)c2)c1 | 32000 nM
CC(C(=O)Nc1ccc(Br)cc1)N1CCN(c2ccc([N+](=O)[O-])cc2)CC1 (stereo unspecified) | > 40000 nM (inactive)
Cn1nccc1-c1cc(OC(CN)c2ccccc2)cnc1-c1ccco1 (stereo unspecified) | 13000 nM
COc1ccc(S(=O)(=O)NCc2ccc(-c3ccc(CN(C)CCO)cc3)cc2)cc1 | 3200 nM
O=C(Nc1nc2ccccc2[nH]1)c1ccc2nc[nH]c2c1 | > 40000 nM (inactive)
Cc1nc(C(=O)Nc2ccc3c(c2)OCO3)nn1-c1ccc(F)cc1 | > 40000 nM (inactive)
O=C(CSc1nnc(-c2ccc3c(c2)OCO3)o1)N(Cc1ccco1)CC(F)(F)F | > 40000 nM (inactive)
O=C(c1cc2cc(Cl)ccc2[nH]1)N1CCCCC1c1cccnc1 (stereo unspecified) | 25000 nM

Compound | IC50
Cc1nn(C)c(Cl)c1CN(Cc1cccnc1)Cc1ccsc1 | > 40000 nM (inactive)
CNc1nc(C)nc(N2CCc3cc(C(=O)NCc4ccc(-c5nccn5C)cc4Cl)ccc32)n1 | 13000 nM
CS(=O)(=O)c1ccc(CC(=O)Nc2nc(-c3ccc(Cl)s3)cs2)cc1 | 10000 nM
CCN(CC)c1nc(Nc2ccncc2)nc2ccccc12 | 2500 nM
CC(C)c1sc(Cl)nc1C(=O)NCCc1nc(C(=O)Nc2ccc3c(c2)OCO3)cs1 | 25000 nM
Cc1cc(C)cc(NS(=O)(=O)c2cc(-c3cc(C)[nH]n3)ccc2C)c1 | 1000 nM
CN1CCC(N(C)c2nccc(N3CCN(C(=O)c4cccc(-c5cccnc5)c4)CC3)n2)CC1 | 790 nM
COc1ccccc1-c1c(C)[nH]c2nc(N)nc(C)c12 | 25000 nM
CCOc1ccccc1C(=O)Nc1nnc(-c2ccc3c(c2)OCO3)s1 | > 40000 nM (inactive)
COc1ccc(Nc2nc(-c3ccccn3)cc(N3CCCC(O)C3)n2)cc1 (stereo unspecified) | 4000 nM
CC(c1ccccn1)N(C)Cc1nc2ccccc2n1C(C)C (stereo unspecified) | 13000 nM
N#Cc1cccc(CNc2ccc(-c3cnn(CC4CC4)c(=O)c3C#N)cc2)c1 | 10000 nM
CCOc1cnn(C)c(=O)c1Nc1ccc(C(=O)NCc2ccc(F)cc2)cc1 | > 40000 nM (inactive)
COc1cccc(-c2c(C)nn(-c3nc(N)nc(-c4ccccn4)n3)c2N)c1 | > 40000 nM (inactive)
CN1CCCN(C(=O)c2ccc(N3CCCC3)cc2Cl)CC1 | > 40000 nM (inactive)
Cc1ccc(Nc2nc(N)nc(CNC(c3nc4ccccc4[nH]3)C(C)C)n2)cc1 (stereo unspecified) | 7900 nM
Cc1nn(C2CCS(=O)(=O)C2)c(C)c1CN(C)C(=O)C=Cc1sc2ccccc2c1Cl (stereo unspecified) | 10000 nM
Cn1c(CN2CCN(c3ncc(C(F)(F)F)cc3Cl)CC2)nc2ccncc21 | 6300 nM
O=C(Nc1n[nH]c(-c2ccccn2)n1)C1CC1c1ccccc1 (stereo unspecified) | > 13000 nM (inactive)
O=C(Nc1ccc(C(F)(F)F)cc1)Nc1cccc([N+](=O)[O-])c1 | 2000 nM
Nc1nc(-c2ccccc2)cc(-c2nc3ncccc3[nH]2)n1 | 10000 nM
O=C(Nc1nc(-c2ccc(S(=O)(=O)N3CCOCC3)cc2)cs1)c1ccc([N+](=O)[O-])cc1 | 4000 nM

Compound | IC50
O=C(c1cccc(Cl)c1Cl)N1CCn2c1nc(-c1ccncc1)cc2=O | 16000 nM
CNc1nc(C)nc(N2CCc3cc(C(=O)NCc4ccc(-c5ccn[nH]5)cc4Cl)ccc32)n1 | 13000 nM
CC(C(=O)Nc1ccccc1F)N(C)CC(=O)Nc1cccc2ccccc12 (stereo unspecified) | 25000 nM
COc1ccc(-c2cnc(NC(=O)c3ccc(F)cc3)n2C)cc1 | 1300 nM
CC(CNS(=O)(=O)c1ccc(OC(F)F)cc1)c1ccc(NC(=O)c2ccncc2)cc1 (stereo unspecified) | 7900 nM
Cc1cc(N(C)C)nc(Nc2ccccc2C)n1 | 32000 nM
O=c1[nH]c(C=Cc2cccc(OCCOc3ccccc3)c2)nc(O)c1[N+](=O)[O-] | 10000 nM
COc1ccc(Nc2nccc(N(C)c3n[nH]c4c(F)cccc34)n2)cc1S(C)(=O)=O | 6300 nM
O=c1ccn(-c2ccc([N+](=O)[O-])cc2Cl)c2ccc(F)cc12 | 25000 nM
Cc1cc(Br)cc(C(=O)c2c(C(C)C)c(=O)[nH]c(=O)n2Cc2ccnc(N)c2)c1 | 13000 nM
Clc1ccc(CN2CCN(C3=NCCN3)CC2)cc1Cl | > 40000 nM (inactive)
Cc1cc(C)nc(N2CCC(N(Cc3cccnc3)C(=O)c3cccc(C#N)c3)CC2)n1 | > 40000 nM (inactive)
Clc1ccc(C(CC2CCCCO2)Cn2cncn2)c(Cl)c1 (stereo unspecified) | > 40000 nM (inactive)
CCN(Cc1ccncc1)Cc1ccc(NC(=O)c2cc(-c3ccc(F)cc3)n[nH]2)cc1 | > 40000 nM (inactive)
Cc1nc2c(-c3n[nH]c(-c4ccccc4N)n3)cccn2c1C | 1000 nM
CN(CCOc1ccc(Cl)cc1)Cc1nc(N)nc(N(C)C)n1 | 25000 nM
CCOc1cc(NCCCN2CCN(C)CC2)c2ncccc2c1 | 13000 nM
CNc1cncc(C2CCCN2C(=O)Cc2ccc3ccccc3c2)n1 (stereo unspecified) | > 40000 nM (inactive)
Cc1nc(N2CC(C)OC(C)C2)sc1C(=O)Nc1ccc2c(c1)OCO2 (stereo unspecified) | 40000 nM
Cc1cccc(NS(=O)(=O)c2ccc3c(c2)C(=O)c2cc(S(=O)(=O)Nc4cccc(C)c4C)ccc2-3)c1C | 7900 nM

Continued by falling IC50, values first:

IC50 | Compound
790 nM | COc1ccc(C(=O)Nc2c(C)nn(COc3cccc(C(F)(F)F)c3)c2C)cc1
790 nM | CC(C)(C)Nc1nc(Nc2ccc3c(c2)CS(=O)(=O)C3)nc2[nH]ccc12
790 nM | Cc1ccc(S(C)(=O)=O)cc1Nc1nccc(-c2sc(N)nc2-c2ccccc2)n1
790 nM | Cc1cc(Oc2cc(Cl)c(Cl)cc2Cl)n2ncnc2n1
790 nM | c1ccc2[nH]c(-c3ccc(N4CCCC4)nc3)nc2c1
630 nM | COC(=O)c1ccc(-c2cnc3ccc(NCc4ccccn4)nn23)cc1
630 nM | CC(=O)Nc1ccc(-c2cnc(N)c(-c3nc4ccc(F)cc4[nH]3)c2)cc1
630 nM | Cc1cc(=O)n2nc(Oc3ccc(C#N)cc3Cl)sc2n1
630 nM | O=C(O)[C@H]1C[C@@H]1c1ccc(-c2ccc(CN(CCc3ccccn3)C(=O)C3CCC3)cc2)cc1
630 nM | O=C(Nc1nc(-c2ccccn2)cs1)c1ccccc1-n1cnnn1
630 nM | COc1ccc(CN2C(=O)C(O)(CC(=O)c3ccncc3)c3cc(Br)ccc32)cc1OC (stereo unspecified)
630 nM | CCOC(=O)c1noc(N)c1-c1ccccc1
630 nM | COc1ccc(C2CC(c3ccccc3Cl)=NN2C(=O)CNC(=O)C2CCCC2)cc1 (stereo unspecified)
500 nM | CN(C)S(=O)(=O)c1ccc(Cl)c(C(=O)Nc2nc(-c3ccccn3)cs2)c1
500 nM | CS(=O)(=O)c1ccc(Nc2nccc(Nc3n[nH]c4ccc(F)cc34)n2)c(F)c1
500 nM | CCS(=O)(=O)c1cccc(C(=O)Nc2nc(-c3ccccn3)cs2)c1
400 nM | O=C(COc1ccccc1)Nc1ccccc1C(=O)Nc1nccs1
400 nM | OC[C@@H](Nc1nccc(-c2c(-c3ccc(F)cc3)ncn2C2CCNCC2)n1)c1ccccc1
400 nM | CCN(CC)S(=O)(=O)c1ccc(OC)c(NC(=O)c2ccc([N+](=O)[O-])s2)c1
400 nM | O=C(NCC1CCCCN1C(=O)c1cccc2ccccc12)c1ccccc1 (stereo unspecified)
400 nM | O=C(Cc1ccccc1)Nc1[nH]nc2sc(C(=O)NC3CCCC3)cc12

IC50 | Compound
320 nM | COc1ncc(-c2ccc3nccc(-c4ccncc4)c3c2)cc1NS(C)(=O)=O
320 nM | COc1ccc(C2CC(c3ccccc3Cl)=NN2C(=O)CNC(=O)C2CCC2)cc1 (stereo unspecified)
320 nM | O=c1cc(NCCCNCc2cc(C(F)(F)F)cs2)[nH]c2ccccc12
320 nM | CCN(CC)S(=O)(=O)c1ccc(C(=O)Nc2cc(C)nn2-c2nc(C)c(C)c(=O)[nH]2)cc1
250 nM | CCC(CC)C(=O)Nc1cccc(C(=O)Nc2nnc(C3CCCCC3)s2)c1
250 nM | COc1cc(F)c2ncc(F)c(CCN3CC[C@H](NCc4cc5c(cn4)OCS5)[C@@H](O)C3)c2c1
200 nM | CC(C)S(=O)(=O)c1ccc(-c2cnc(N)c3cc(-c4ccnc(N)n4)ccc23)cc1
200 nM | COc1ccc(NC(=O)c2ccc(NC(=O)CN(c3ccccc3C)S(C)(=O)=O)cc2)cc1
200 nM | COc1ccc2nccc([C@H](O)CN3CC[C@H](NC(=O)c4ccc(Br)cc4)[C@@H](O)C3)c2n1
200 nM | CC(C)(C)c1csc(NC(=O)c2ccc([N+](=O)[O-])s2)n1
160 nM | CS(=O)(=O)NC1CCC(Nc2ncc(Br)c(Nc3ccccc3C(N)=O)n2)CC1 (stereo unspecified)
130 nM | Cc1cc(NC(=O)C2CC2)ccc1OC1CCN(Cc2ccco2)CC1
130 nM | O=C(NCc1nnc2n1CCCCC2)c1ccc(-c2ccc(F)cc2)o1
130 nM | COc1ccc(-c2csc(NC(=O)c3ccc([N+](=O)[O-])s3)n2)cc1OC
100 nM | O=c1[nH]c(NCCCNCc2cc(Br)cc(Br)c2)nc2ccsc12
79 nM | COc1ccc(-c2csc(NC(=O)c3ccc([N+](=O)[O-])s3)n2)cc1
79 nM | NC(=O)c1cc(F)ccc1Nc1nc(NC2CCC(O)CC2)ncc1Br (stereo unspecified)
63 nM | Cc1ccc(NC(=O)c2ccnc(N3CCCC3)c2)cc1-c1ccsc1C(N)=O
63 nM | Cc1cc(Br)sc1CNCCCNc1cc(=O)c2ccccc2[nH]1
16 nM | COc1ccc(OC)c(NC(=O)c2ccc([N+](=O)[O-])o2)c1
7.9 nM | Cc1cc(Nc2ccc(C#N)c(Cl)c2C)n[nH]1

Reference: PubChem BioAssay AID1159557 (GlaxoSmithKline (GSK), 2015)
